Measured values reported in patent US10144715B2, “Piperazine derivatives as liver X receptor modulators” (priority 2014, dated 2018).
Like-named read-outs stand apart in the source and are kept apart here.

Experiments:
LXR α LBD protein = LXR α LBD protein (Homo sapiens (Human), UniProt Q13133); assay: LXR α radioligand binding assay (SPA, competition with [3H]TO901317); details: read-out: LXRα Binding Ki
[1] = biological target: Gal4 DNA binding domain fused to the LBD of LXRα in HEK293 cells (Homo sapiens (Human), UniProt Q13133); assay: LXR luciferase transcriptional reporter gene assay, agonist mode, LXRα; assay type: cell-based
Gal4 DNA binding domain fused to the LBD of LXRα in HEK293 cells, sequence (Q13133 209-447): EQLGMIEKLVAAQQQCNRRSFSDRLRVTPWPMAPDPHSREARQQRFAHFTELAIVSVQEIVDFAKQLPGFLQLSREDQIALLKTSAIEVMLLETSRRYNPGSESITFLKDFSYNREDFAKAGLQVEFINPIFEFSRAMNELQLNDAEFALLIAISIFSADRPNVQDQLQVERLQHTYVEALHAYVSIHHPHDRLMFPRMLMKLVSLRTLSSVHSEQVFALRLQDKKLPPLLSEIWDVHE

[2] = biological target: Gal4 DNA binding domain fused to the LBD of LXRβ in HEK293 cells (Homo sapiens (Human), UniProt P55055); assay: cell-based
Gal4 DNA binding domain fused to the LBD of LXRβ in HEK293 cells, sequence (P55055 222-460 limits assumed): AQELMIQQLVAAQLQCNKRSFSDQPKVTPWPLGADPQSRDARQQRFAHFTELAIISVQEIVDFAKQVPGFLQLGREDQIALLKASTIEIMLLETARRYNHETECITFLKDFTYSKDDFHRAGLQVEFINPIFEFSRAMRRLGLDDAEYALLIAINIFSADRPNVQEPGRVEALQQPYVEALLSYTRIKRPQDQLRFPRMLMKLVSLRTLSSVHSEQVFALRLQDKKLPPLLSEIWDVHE

[3] = agonist mode, read-out: Cell LXRα EC50
[4] = Biological Test Example 2, agonist mode, read-out: Cell LXRα EC50
[5] = Biological Test Example 2, agonist mode

LXR α LBD protein, sequence (Q13133 209-447): as the sequence (Q13133 209-447) above

Structure (SMILES)	Ki (LXR α LBD protein)	Cell LXRα efficacy [1]	EC50 [1, 3]	also measured
CC(C)[C@@H]1CN(c2ccc(F)c(S(C)(=O)=O)c2)CCN1C(=O)OC(C)(C)C(F)(F)F [5-2, 1,1,1-trifluoro-2-methylpropan-2-yl (R)-4-(4-fluoro-3-(methylsulfonyl)phenyl)-2-isopropylpiperazine-1-carboxylate]	163 nM	947 (73) %		EC50 [1]: 947 nM; EC50 [2]: 111 nM
CC(C)[C@@H]1CN(c2ccc(F)c(S(C)(=O)=O)c2)CCN1C(=O)OC(C)C(F)(F)F (stereo partly drawn) [5-3, 1,1,1-trifluoropropan-2-yl (2R)-4-(4-fluoro-3-(methylsulfonyl)phenyl)-2-isopropylpiperazine-1-carboxylate]	474 nM	1595 (86) %		EC50 [1]: 1590 nM; EC50 [2]: 198 nM
CCOC(=O)c1cnc(N2CCN(c3ccc(-c4nc(C(N)=O)cs4)c(S(C)(=O)=O)c3)C[C@H]2C(C)C)nc1C(F)(F)F [9-14, ethyl (R)-2-(4-(4-(4-carbamoylthiazol-2-yl)-3-(methylsulfonyl)phenyl)-2-isopropylpiperazin-1-yl)-4-(trifluoromethyl)pyrimidine-5-carboxylate]	407 nM	3003 (28) %		EC50 ([1]; read-out: Cell LXRα EC50): 3000 nM
Cc1nnc(-c2ccc(N3CCN(c4ncc(CO)c(C(F)(F)F)n4)[C@H](C(C)C)C3)cc2S(C)(=O)=O)s1 [11-11, (R)-(2-(2-isopropyl-4-(4-(5-methyl-1,3,4-thiadiazol-2-yl)-3-(methylsulfonyl)phenyl)piperazin-1-yl)-4-(trifluoromethyl)pyrimidin-5-yl)methanol]	2050 nM	3508 (31) %	3510 nM	
CC(C)[C@@H]1CN(c2ccc(-c3nc(C(N)=O)cs3)c(S(C)(=O)=O)c2)CCN1c1ncc(CO)c(C(F)(F)F)n1 [11-13, (R)-2-(4-(4-(5-(hydroxymethyl)-4-(trifluoromethyl)pyrimidin-2-yl)-3-isopropylpiperazin-1-yl)-2-(methylsulfonyl)phenyl)thiazole-4-carboxamide]	706 nM	2145 (52) %	2150 nM	
CC(O)c1cnc(N2CCN(c3ccc(F)c(S(C)(=O)=O)c3)C[C@H]2c2ccc(F)cc2)nc1C(F)(F)F (stereo partly drawn) [12-9, 1-(2-((R)-4-(4-fluoro-3-(methylsulfonyl)phenyl)-2-(4-fluorophenyl)piperazin-1-yl)-4-(trifluoromethyl)pyrimidin-5-yl)ethan-1-ol]	896 nM	4884 (19) %	4880 nM	
CC(C)[C@@H]1CN(c2ccc(CN)c(S(C)(=O)=O)c2)CCN1c1nccc(C(F)(F)F)n1 [15-11, (R)-(4-(3-isopropyl-4-(4-(trifluoromethyl)pyrimidin-2-yl)piperazin-1-yl)-2-(methylsulfonyl)phenyl)methanamine]	2180 nM	4307 (42) %	4310 nM	
CC(C)[C@@H]1CN(c2ccc(F)c(S(C)(=O)=O)c2)CCN1c1ncc(C(=O)N(C)C2CN(C(=O)OC(C)(C)C)C2)c(C(F)(F)F)n1 [17-22, tert-butyl (R)-3-(2-(4-(4-fluoro-3-(methylsulfonyl)phenyl)-2-isopropylpiperazin-1-yl)-N-methyl-4-(trifluoromethyl)pyrimidine-5-carboxamido)azetidine-1-carboxylate]	670 nM			EC50 [1]: > 20000 nM; EC50 [2]: > 20000 nM
CC(C)[C@H]1CN(c2ccc(CO)c(S(C)(=O)=O)c2)CCN1Cc1ccc(C(F)(F)F)c(F)c1 [47-3, (S)-(4-(4-(3-fluoro-4-(trifluoromethyl)benzyl)-3-isopropylpiperazin-1-yl)-2-(methylsulfonyl)phenyl)methanol]	422 nM	1280 (60) %	1280 nM	
CC(C)[C@H]1CN(c2cccc(S(C)(=O)=O)c2)CCN1CC1CCC(C)(C)CC1 [48-2, (S)-1-((4,4-dimethylcyclohexyl)methyl)-2-isopropyl-4-(3-(methylsulfonyl)phenyl)piperazine]	81 nM	175 (81) %		EC50 ([1]; read-out: Cell LXRα EC50): 175 nM
CC(C)[C@H]1CN(c2ccc(CO)c(S(C)(=O)=O)c2)CCN1CC1CCN(CC(F)(F)F)CC1 [48-50, (S)-(4-(3-isopropyl-4-((1-(2,2,2-trifluoroethyl)piperidin-4-yl)methyl)piperazin-1-yl)-2-(methylsulfonyl)phenyl)methanol]		386 (77) %		Ki (LXR α LBD protein; Biological Test Example 1): 587 nM; EC50 [1, 4]: 386 nM
CS(=O)(=O)c1cccc(N2CCN(CC3CCC(C(F)(F)F)O3)[C@@H](c3ccc(F)cc3)C2)c1 (stereo partly drawn) [48-73, (2S)-2-(4-fluorophenyl)-4-(3-(methylsulfonyl)phenyl)-1-((5-(trifluoromethyl)tetrahydrofuran-2-yl)methyl)piperazine]	2250 nM			EC50 [1, 4]: > 20000 nM
CS(=O)(=O)c1cccc(N2CCN(CC3CCC(C(F)(F)F)O3)[C@@H](c3ccc(F)cc3)C2)c1 (stereo partly drawn) [48-74, (2S)-2-(4-fluorophenyl)-4-(3-(methylsulfonyl)phenyl)-1-((5-(trifluoromethyl)tetrahydrofuran-2-yl)methyl)piperazine]				Ki (LXR α LBD protein; Biological Test Example 1): 11400 nM; EC50 [1, 4]: > 20000 nM
CC(C)C1CN(c2ccc(C#N)c(S(C)(=O)=O)c2)CCN1CC1CCC(C(F)(F)F)CC1 [50-2, 4-((S)-3-isopropyl-4-(((1r,4S)-4-(trifluoromethyl)cyclohexyl)methyl)piperazin-1-yl)-2-(methylsulfonyl)benzonitrile]	358 nM	721 (72) %		EC50 ([1]; read-out: Cell LXRα EC50): 721 nM; Cell LXRβ efficacy [2, 5]: 542 (85) %
Cc1nc(N2CCN(c3ccc(F)c(S(C)(=O)=O)c3)C[C@H]2C(C)C)ncc1S(C)(=O)=O [Cpd No 3-3, (R)-2-(4-(4-fluoro-3-(methylsulfonyl)phenyl)-2-isopropylpiperazin-1-yl)-4-methyl-5-(methylsulfonyl)pyrimidine]	> 3330 nM	9543 (37) %	9540 nM	
CC(C)[C@@H]1CN(c2ccc(F)c(S(N)(=O)=O)c2)CCN1c1ccc(C(F)(F)F)cn1 [Cpd No 18-1, (R)-2-fluoro-5-(3-isopropyl-4-(5-(trifluoromethyl)pyridin-2-yl)piperazin-1-yl)benzenesulfonamide]	73 nM	591 (104) %	591 nM	
CC(C)[C@@H]1CN(c2ccc(F)c(S(C)(=O)=O)c2)CCN1c1ncc(C(F)(F)F)cc1N [Cpd No 21-1, (R)-2-(4-(4-fluoro-3-(methylsulfonyl)phenyl)-2-isopropylpiperazin-1-yl)-5-(trifluoromethyl)pyridin-3-amine]	608 nM	3767 (74) %		EC50 [1]: 3770 nM
CC(C)[C@@H]1CN(c2ccc(F)c(S(C)(=O)=O)c2)CCN1c1nc(C(F)(F)F)cc(=O)[nH]1 [Cpd No 24-1, (R)-2-(4-(4-fluoro-3-(methylsulfonyl)phenyl)-2-isopropylpiperazin-1-yl)-6-(trifluoromethyl)pyrimidin-4-ol]	> 3330 nM			EC50 ([1]; read-out: Cell LXRα EC50): > 20000 nM
CC(C)[C@@H]1CN(c2ccc(CO)c(S(C)(=O)=O)c2)CCN1c1ncc(C(C)(C)C#N)c(C(F)(F)F)n1 [Cpd No 25-1, (R)-2-(2-(4-(4-(hydroxymethyl)-3-(methylsulfonyl)phenyl)-2-isopropylpiperazin-1-yl)-4-(trifluoromethyl)pyrimidin-5-yl)-2-methylpropanenitrile]	32 nM	174 (44) %	174 nM	
CC(C)[C@@H]1CN(c2ccc(CO)c(S(C)(=O)=O)c2)CCN1c1nc(C(F)(F)F)c(C(C)(C)O)s1 [Cpd No 27-1, (R)-2-(2-(4-(4-(hydroxymethyl)-3-(methylsulfonyl)phenyl)-2-isopropylpiperazin-1-yl)-4-(trifluoromethyl)thiazol-5-yl)propan-2-ol]	27 nM	225 (97) %	225 nM	
COc1cnc(N2CCN(c3ccc(F)c(S(C)(=O)=O)c3)C[C@H]2C(C)C)nc1C(F)(F)F [Cpd No 29-1, (R)-2-(4-(4-fluoro-3-(methylsulfonyl)phenyl)-2-isopropylpiperazin-1-yl)-5-methoxy-4-(trifluoromethyl)pyrimidine]	9 nM	266 (104) %	266 nM	
CC(C)[C@@H]1CN(c2ccc(F)c(S(C)(=O)=O)c2)CCN1c1ncc(C(F)(F)F)c(Cl)n1 [Cpd No 36-1, (R)-4-chloro-2-(4-(4-fluoro-3-(methylsulfonyl)phenyl)-2-isopropylpiperazin-1-yl)-5-(trifluoromethyl)pyrimidine]	30 nM	305 (100) %		EC50 ([1]; read-out: Cell LXRα EC50): 305 nM
CC(O)c1nc(N2CCN(c3ccc(F)c(S(C)(=O)=O)c3)C[C@H]2C(C)C)ncc1C(F)(F)F (stereo partly drawn) [Cpd No 38-1, 1-(2-((R)-4-(4-fluoro-3-(methylsulfonyl)phenyl)-2-isopropylpiperazin-1-yl)-5-(trifluoromethyl)pyrimidin-4-yl)ethan-1-ol]	67 nM	165 (89) %	165 nM	
CC(C)[C@@H]1CN(c2ccc(F)c(S(C)(=O)=O)c2)CCN1c1ncc(C(F)(F)F)c(C#N)n1 [Cpd No 43-1, (R)-2-(4-(4-fluoro-3-(methylsulfonyl)phenyl)-2-isopropylpiperazin-1-yl)-5-(trifluoromethyl)pyrimidine-4-carbonitrile]	26 nM	136 (101) %		EC50 ([1]; read-out: Cell LXRα EC50): 136 nM
CC(=O)NCc1ccc(N2CCN(c3nccc(C(F)(F)F)n3)[C@H](C(C)C)C2)cc1S(C)(=O)=O [Cpd No 54-1, (R)-N-(4-(3-isopropyl-4-(4-(trifluoromethyl)pyrimidin-2-yl)piperazin-1-yl)-2-(methylsulfonyl)benzyl)acetamide]				Ki (LXR α LBD protein; Biological Test Example 1): 716 nM; Cell LXRα efficacy [1, 5]: 72%; EC50 [1, 4]: 2200 nM
